This assay relates to P388 leukemia ip, CD2F1 mice, survival T/C. The assay can be described thus: NCI In Vivo Anticancer Drug Screen. Data for tumor model P388 Leukemia (intraperitoneal) in CD2F1 (CDF1) mice. The settings on record: endpoint: median survival time, higher = longer survival. The method, boiled down: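 Mice carrying the transplanted tumor received test compound or vehicle. Survival was recorded in each group, and the value is the treated-group measurement divided by that of the vehicle-treated control group.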

The mark [1] stands for this setting: dose: 60.0 mg/kg/injection, schedule: Q01DX005 (ip), vehicle: saline with Tween-80.
The mark [2] stands for this setting: dose: 120.0 mg/kg/injection, schedule: Q01DX005 (ip), vehicle: saline with Tween-80.
Setting [3] is: dose: 240.0 mg/kg/injection, schedule: Q01DX005 (ip), vehicle: saline with Tween-80.
The mark [4] stands for this setting: dose: 50.0 mg/kg/injection, schedule: Q01DX005 (ip), vehicle: saline with Tween-80.
[5] abbreviates: dose: 100.0 mg/kg/injection, schedule: Q01DX005 (ip), vehicle: saline with Tween-80.
The mark [6] stands for this setting: dose: 200.0 mg/kg/injection, schedule: Q01DX005 (ip), vehicle: saline with Tween-80.

The structures appear in SMILES notation. Values joined by “and” are separate entries in the source; they are usually repeats but may differ in a detail not shown here. Equal entries are not always repeated. Toxic doses and inconclusive results are not listed.

As to `CC(C)CCNc1ncnc2[nH]ncc12`, the T/C is 95 % of control (dose: 25.0 mg/kg/injection, schedule: Q04DX003 (ip), vehicle: saline with Tween-80); 95 % of control (dose: 50.0 mg/kg/injection, schedule: Q04DX003 (ip), vehicle: saline with Tween-80); 100 % of control (dose: 100.0 mg/kg/injection, schedule: Q04DX003 (ip), vehicle: saline with Tween-80).

For the compound `CC(C)(C)N1CC(O)C1`, the T/C (dose: 50.0 mg/kg/injection, schedule: Q01DX001 (ip), vehicle: saline) was 100 % of control; the T/C (dose: 100.0 mg/kg/injection, schedule: Q01DX001 (ip), vehicle: saline) was 98 % of control; the T/C (dose: 200.0 mg/kg/injection, schedule: Q01DX001 (ip), vehicle: saline) was 93 % of control.

On to `COc1ccc2c(c1OC)C(OC)OC(c1cc3c(cc1CCN(C)C)OCO3)C2` (configuration not stated), for which the T/C runs as follows: (dose: 12.5 mg/kg/injection, schedule: Q01DX001 (ip), vehicle: saline + alcohol) 91 % of control; (dose: 25.0 mg/kg/injection, schedule: Q01DX001 (ip), vehicle: saline + alcohol) 88 % of control; (dose: 50.0 mg/kg/injection, schedule: Q01DX001 (ip), vehicle: saline + alcohol) 91 % of control.

`COc1ccc(C(CC(=O)O)CC(=O)N(CCCl)CCCl)cc1C` (configuration not stated): the T/C (dose: 100.0 mg/kg/injection, schedule: Q04DX003 (ip), vehicle: saline) is 102 % of control; the T/C (dose: 200.0 mg/kg/injection, schedule: Q04DX003 (ip), vehicle: saline) was 100 % of control; the T/C (dose: 400.0 mg/kg/injection, schedule: Q04DX003 (ip), vehicle: saline) was 100 % of control.

With `O=C1OCCOCCSCCOCCOC(=O)c2cccc1n2`, the T/C is 101 % of control (dose: 100.0 mg/kg/injection, schedule: Q04DX003 (ip), vehicle: Klucel (hydroxypropylcellulose) (HPC)); 102 % of control (dose: 200.0 mg/kg/injection, schedule: Q04DX003 (ip), vehicle: Klucel (hydroxypropylcellulose) (HPC)); 100 % of control (dose: 400.0 mg/kg/injection, schedule: Q04DX003 (ip), vehicle: Klucel (hydroxypropylcellulose) (HPC)).

As to `CC(C)CC(N)C(=O)OCN1C(=O)C2C3C=CC(C2C1=O)C1C2C(=O)N(COC(=O)C(N)CC(C)C)C(=O)C2C31` (configuration not stated), the T/C reads like this: (dose: 12.5 mg/kg/injection, schedule: Q01DX009 (ip), vehicle: saline) 102 % of control and 105 % of control; (dose: 25.0 mg/kg/injection, schedule: Q01DX009 (ip), vehicle: saline) 105 % of control and 108 % of control; (dose: 50.0 mg/kg/injection, schedule: Q01DX009 (ip), vehicle: saline) 109 % of control and 119 % of control; (dose: 100.0 mg/kg/injection, schedule: Q01DX009 (ip), vehicle: saline) 162 % of control and 177 % of control.

`COC(=O)C1=C(C)NC(c2ccc(OC)cc2OC)C(C(=O)OC)=C1C` (configuration not stated): the T/C is, setting by setting: under setting [1], 105 % of control; under setting [2], 102 % of control; under setting [3], 97 % of control.

For `C=C1CCOC1=O`, the T/C is, setting by setting: (dose: 50.0 mg/kg/injection, schedule: Q04DX002 (ip), vehicle: saline with Tween-80) 97 % of control; (dose: 100.0 mg/kg/injection, schedule: Q04DX002 (ip), vehicle: saline with Tween-80) 105 % of control; (dose: 200.0 mg/kg/injection, schedule: Q04DX002 (ip), vehicle: saline with Tween-80) 105 % of control.

For `C/C(N=NC(=S)N1CCCCC1C)=C1\C=CC=CN1O` (configuration not stated), the T/C was 110 % of control under setting [4], 97 % of control under setting [5] and 104 % of control under setting [6].

For the compound `CN[C@H]1CCc2cc(OC)c(OC)c(OC)c2-c2ccc(OC)c(=O)cc21`, the T/C (dose: 0.5 mg/kg/injection, schedule: Q01DX009 (ip), vehicle: saline) was 109 % of control; the T/C (dose: 0.5 mg/kg/injection, schedule: Q01DX009 (ip), vehicle: water) is 109 % of control; the T/C (dose: 0.63 mg/kg/injection, schedule: Q01DX009 (ip), vehicle: water) is 112 % of control; the T/C (dose: 1.0 mg/kg/injection, schedule: Q01DX009 (ip), vehicle: saline with Tween-80) was 117 % of control; the T/C (dose: 1.0 mg/kg/injection, schedule: Q01DX009 (ip), vehicle: saline) was 104 % of control and 124 % of control; the T/C (dose: 2.0 mg/kg/injection, schedule: Q01DX009 (ip), vehicle: saline with Tween-80) was 98 % of control. The T/C was 104 % of control and 121 % of control (dose: 2.0 mg/kg/injection, schedule: Q01DX009 (ip), vehicle: saline); 95 % of control (dose: 4.0 mg/kg/injection, schedule: Q01DX009 (ip), vehicle: saline with Tween-80); 104 % of control (dose: 4.0 mg/kg/injection, schedule: Q01DX009 (ip), vehicle: saline); 103 % of control (dose: 4.0 mg/kg/injection, schedule: Q04DX003 (ip), vehicle: saline with Tween-80); 117 % of control (dose: 5.0 mg/kg/injection, schedule: Q01DX009 (ip), vehicle: water); 121 % of control (dose: 8.0 mg/kg/injection, schedule: Q01DX009 (ip), vehicle: saline). Besides, the T/C (dose: 8.0 mg/kg/injection, schedule: Q01DX009 (ip), vehicle: water) was 152 % of control; the T/C (dose: 8.0 mg/kg/injection, schedule: Q04DX003 (ip), vehicle: saline with Tween-80) was 101 % of control; the T/C (dose: 10.0 mg/kg/injection, schedule: Q01DX009 (ip), vehicle: water) is 155 % of control; the T/C (dose: 16.0 mg/kg/injection, schedule: Q04DX003 (ip), vehicle: saline with Tween-80) was 102 % of control; the T/C (dose: 32.0 mg/kg/injection, schedule: Q04DX003 (ip), vehicle: saline with Tween-80) is 102 % of control.

Regarding `O=c1[nH]ccc2occc12`, the T/C (dose: 25.0 mg/kg/injection, schedule: Q01DX009 (ip), vehicle: saline with Tween-80) is 100 % of control; the T/C (dose: 50.0 mg/kg/injection, schedule: Q01DX009 (ip), vehicle: saline with Tween-80) was 100 % of control; the T/C (dose: 100.0 mg/kg/injection, schedule: Q01DX009 (ip), vehicle: saline with Tween-80) is 109 % of control.

As to `CNc1cccnc1C1OCCO1`, the T/C is 96 % of control (dose: 50.0 mg/kg/injection, schedule: Q01DX005 (ip), vehicle: Klucel (hydroxypropylcellulose) (HPC)); 102 % of control (dose: 100.0 mg/kg/injection, schedule: Q01DX005 (ip), vehicle: Klucel (hydroxypropylcellulose) (HPC)); 100 % of control (dose: 200.0 mg/kg/injection, schedule: Q01DX005 (ip), vehicle: Klucel (hydroxypropylcellulose) (HPC)).

For `CCCCCCCCCCNCCSSc1ccccc1`, the T/C was 95 % of control (dose: 6.25 mg/kg/injection, schedule: Q01DX005 (ip), vehicle: Klucel (hydroxypropylcellulose) (HPC)); 100 % of control (dose: 12.5 mg/kg/injection, schedule: Q01DX005 (ip), vehicle: Klucel (hydroxypropylcellulose) (HPC)); 102 % of control (dose: 25.0 mg/kg/injection, schedule: Q01DX005 (ip), vehicle: Klucel (hydroxypropylcellulose) (HPC)).

For `CCC(Oc1c2ccoc2c(OC)c2oc(C)cc(=O)c12)C(=O)OCCN1CCOCC1` (configuration not stated), the T/C by setting is: under setting [4], 102 % of control; under setting [5], 104 % of control; under setting [6], 98 % of control.

For `CC1(O)OC(COc2ccc(Cl)cc2)COC1O` (configuration not stated), the T/C reads like this: under setting [1], 112 % of control; under setting [2], 103 % of control.

Regarding `CC/C(=C(/CC)c1ccc(OCC(=O)N/N=C2/C=C3CCC4C(CCC5(C)C(O)CCC45)C3(C)CC2)cc1)c1ccc(OCC(=O)N/N=C2\C=C3CCC4C(CCC5(C)C(O)CCC45)C3(C)CC2)cc1` (configuration not stated), the T/C is 95 % of control (dose: 50.0 mg/kg/injection, schedule: Q01DX001 (ip), vehicle: Klucel (hydroxypropylcellulose) (HPC)) and 87 % of control (dose: 100.0 mg/kg/injection, schedule: Q01DX001 (ip), vehicle: Klucel (hydroxypropylcellulose) (HPC)).

As for `O=S(=O)(OC(F)(F)F)C(F)(F)F`, the T/C reads like this: (dose: 24.5 mg/kg/injection, schedule: Q01DX001 (ip), vehicle: Klucel (hydroxypropylcellulose) (HPC)) 97 % of control; (dose: 49.0 mg/kg/injection, schedule: Q01DX001 (ip), vehicle: Klucel (hydroxypropylcellulose) (HPC)) 94 % of control; (dose: 98.0 mg/kg/injection, schedule: Q01DX001 (ip), vehicle: Klucel (hydroxypropylcellulose) (HPC)) 94 % of control.

As to `O=C(CSCc1c(F)cccc1Cl)Nc1ccc(F)c(Cl)c1`, the T/C is 97 % of control under setting [1], 91 % of control under setting [2] and 91 % of control under setting [3].
